Results on seven compounds are retold here after ChEMBL document CHEMBL3392978 (Eur J Med Chem, 2015).

Each structure is given as a SMILES string.

In data set [1] the test system is HepG2. The data set can be described thus: Growth inhibition of human HepG2 cells at 10 uM after 72 hrs by MTT assay. Type of data set: functional. To be noted: HepG2, 72 h, read-out: GI. (Formazan colour is commonly taken as a measure of viable cells.)
In data set [2] the test system is MDA-MB-453. The data set can be described thus: Growth inhibition of human MDA-MB-453 cells at 10 uM after 72 hrs by MTT assay. Type of data set: functional. To be noted: MDA-MB-453, 72 h, read-out: GI.
For data set [3], the system named is SW480. Nature of the data set: Growth inhibition of human SW480 cells at 10 uM after 72 hrs by MTT assay. To be noted: SW480, 72 h, read-out: GI. The class given is functional.
The test system of data set [4] is A-375. Nature of the data set: Growth inhibition of human A375 cells at 10 uM after 72 hrs by MTT assay. Type of data set: functional. To be noted: A-375, 72 h, read-out: GI.
Data set [5] deals with NCI-H522. Nature of the data set: Growth inhibition of human NCI-H522 cells at 10 uM after 72 hrs by MTT assay. The class given is functional. To be noted: NCI-H522, 72 h, read-out: GI.
In data set [6] the test system is MCF7. The data set can be described thus: Growth inhibition of human MCF7 cells at 10 uM after 72 hrs by MTT assay. The class given is functional. To be noted: MCF7, 72 h, read-out: GI.
Data set [7] deals with HepG2. The data set can be described thus: Cytotoxicity against human HepG2 cells assessed as reduction in cell viability after 72 hrs by MTT assay. The class given is functional, cell-based. To be noted: HepG2, 72 h.
The test system of data set [8] is MDA-MB-453. The data set can be described thus: Cytotoxicity against human MDA-MB-453 cells assessed as reduction in cell viability after 72 hrs by MTT assay. Type of data set: functional, cell-based. To be noted: MDA-MB-453, 72 h.
The subject of data set [9] is A-375. The data set can be described thus: Cytotoxicity against human A375 cells assessed as reduction in cell viability after 72 hrs by MTT assay. To be noted: A-375, 72 h. Type of data set: functional, cell-based.
In data set [10] the target is Serine/threonine-protein kinase B-raf (Homo sapiens, UniProt P15056). The data set can be described thus: Inhibition of BRAF (unknown origin) incubated for 15 mins by fluorescence based assay.
Data set [11] concerns the target Vascular endothelial growth factor receptor 2 (Homo sapiens, UniProt P35968). Nature of the data set: Inhibition of human recombinant VEGFR2 incubated for 1 hr using [gamma-32P]ATP by top count assay.
In data set [12] the test system is A-375. The data set can be described thus: Antitumor activity against human A375 cells xenografted in nude Ncr mouse assessed as reduction in tumor growth at 50 mg/kg, ig dosed once daily for 23 days. Type of data set: functional. To be noted: A-375, po, 552 h, route intragastric, read-out: TGI. Background: In xenograft studies the graft and the host belong to different species.

In data set [13] the test system is Mus musculus. Nature of the data set: Toxicity in human A375 cells xenografted nude Ncr mouse assessed as body weight changes at 50 mg/kg, ig dosed once daily for 23 days. Set-up: dose 50 mg/kg, route intragastric. The class given is organism-based, A-375. To be noted: in vivo, po, 552 h.
Data set [14] concerns Mus musculus. The data set can be described thus: Toxicity in human A375 cells xenografted nude Ncr mouse assessed as induction of adverse events at 50 mg/kg, ig dosed once daily for 23 days. Type of data set: organism-based, A-375. Set-up: dose 50 mg/kg, route intragastric. To be noted: in vivo, po, 552 h.
The test system of data set [15] is SW480. The data set can be described thus: Cytotoxicity against human SW480 cells assessed as reduction in cell viability after 72 hrs by MTT assay. Type of data set: functional, cell-based. To be noted: SW480, 72 h.
The subject of data set [16] is MCF7. Nature of the data set: Cytotoxicity against human MCF7 cells assessed as reduction in cell viability after 72 hrs by MTT assay. Type of data set: functional, cell-based. To be noted: MCF7, 72 h.
The test system of data set [17] is NCI-H522. The data set can be described thus: Cytotoxicity against human NCI-H522 cells assessed as reduction in cell viability after 72 hrs by MTT assay. Type of data set: functional, cell-based. To be noted: NCI-H522, 72 h.

Serine/threonine-protein kinase B-raf, sequence (P15056 whole entry): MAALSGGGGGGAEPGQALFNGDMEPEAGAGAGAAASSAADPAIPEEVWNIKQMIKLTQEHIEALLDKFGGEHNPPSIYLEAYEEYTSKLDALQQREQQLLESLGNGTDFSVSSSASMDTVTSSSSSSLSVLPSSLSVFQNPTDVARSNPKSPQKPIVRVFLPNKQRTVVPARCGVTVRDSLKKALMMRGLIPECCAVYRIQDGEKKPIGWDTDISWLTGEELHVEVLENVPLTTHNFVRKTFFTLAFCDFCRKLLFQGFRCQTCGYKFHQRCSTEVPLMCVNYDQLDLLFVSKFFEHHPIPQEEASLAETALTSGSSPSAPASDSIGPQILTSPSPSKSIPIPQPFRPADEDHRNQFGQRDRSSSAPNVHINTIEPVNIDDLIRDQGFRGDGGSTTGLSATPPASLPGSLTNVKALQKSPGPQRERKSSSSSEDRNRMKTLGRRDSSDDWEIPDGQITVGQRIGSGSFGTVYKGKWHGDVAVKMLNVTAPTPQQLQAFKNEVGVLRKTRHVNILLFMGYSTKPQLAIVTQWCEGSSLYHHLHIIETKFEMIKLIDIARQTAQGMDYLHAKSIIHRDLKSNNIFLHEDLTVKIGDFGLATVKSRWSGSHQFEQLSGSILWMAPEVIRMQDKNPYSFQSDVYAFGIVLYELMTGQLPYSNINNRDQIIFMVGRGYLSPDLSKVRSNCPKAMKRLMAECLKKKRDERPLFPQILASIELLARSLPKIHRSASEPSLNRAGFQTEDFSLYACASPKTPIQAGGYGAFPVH
Vascular endothelial growth factor receptor 2, sequence (P35968 whole entry): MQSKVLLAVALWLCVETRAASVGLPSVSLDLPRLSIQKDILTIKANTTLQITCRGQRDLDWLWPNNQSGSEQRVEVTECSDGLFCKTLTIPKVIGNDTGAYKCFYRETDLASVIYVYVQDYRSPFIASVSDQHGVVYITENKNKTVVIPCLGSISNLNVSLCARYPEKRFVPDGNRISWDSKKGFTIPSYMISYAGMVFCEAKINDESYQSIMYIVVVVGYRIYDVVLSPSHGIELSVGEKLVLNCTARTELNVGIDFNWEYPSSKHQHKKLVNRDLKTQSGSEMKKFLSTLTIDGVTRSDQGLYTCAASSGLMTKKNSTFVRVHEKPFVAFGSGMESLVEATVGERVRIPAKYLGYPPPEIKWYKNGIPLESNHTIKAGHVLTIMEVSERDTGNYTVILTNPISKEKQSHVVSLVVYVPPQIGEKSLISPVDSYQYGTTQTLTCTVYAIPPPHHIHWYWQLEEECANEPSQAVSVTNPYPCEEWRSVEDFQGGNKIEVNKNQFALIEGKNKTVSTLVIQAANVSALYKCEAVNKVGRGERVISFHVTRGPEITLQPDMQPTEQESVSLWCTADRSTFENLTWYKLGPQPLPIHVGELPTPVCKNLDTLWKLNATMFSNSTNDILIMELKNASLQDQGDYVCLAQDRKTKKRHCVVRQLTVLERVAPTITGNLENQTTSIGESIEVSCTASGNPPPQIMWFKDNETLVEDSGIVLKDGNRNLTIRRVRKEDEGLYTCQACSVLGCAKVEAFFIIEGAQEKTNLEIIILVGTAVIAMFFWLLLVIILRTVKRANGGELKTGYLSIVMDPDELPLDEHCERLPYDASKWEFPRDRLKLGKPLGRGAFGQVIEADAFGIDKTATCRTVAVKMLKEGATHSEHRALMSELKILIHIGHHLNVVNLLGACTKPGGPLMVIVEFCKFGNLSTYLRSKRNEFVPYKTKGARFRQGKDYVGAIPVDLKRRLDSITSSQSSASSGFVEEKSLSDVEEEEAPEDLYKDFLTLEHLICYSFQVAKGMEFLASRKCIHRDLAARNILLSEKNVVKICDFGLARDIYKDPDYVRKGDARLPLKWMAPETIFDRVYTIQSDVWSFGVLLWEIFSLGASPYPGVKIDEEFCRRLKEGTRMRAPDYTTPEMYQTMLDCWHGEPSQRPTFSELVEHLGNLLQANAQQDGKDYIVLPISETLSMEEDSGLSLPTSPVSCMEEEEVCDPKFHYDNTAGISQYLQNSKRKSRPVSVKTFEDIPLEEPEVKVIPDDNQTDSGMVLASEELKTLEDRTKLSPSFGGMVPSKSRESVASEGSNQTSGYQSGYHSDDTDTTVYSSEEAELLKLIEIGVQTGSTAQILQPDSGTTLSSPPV

Consider `O=C(Nc1ccc(Cl)c(C(F)(F)F)c1)c1ccc(Cl)c(C(=O)Nc2ccc(-c3ncc[nH]3)nc2)c1`, for which the inhibition of growth at 10 µM in the data set on HepG2 [1] stood at 63.4%; in the data set with MDA-MB-453 [2], 52.9%; in the data set with SW480 [3], 33.4%; with A-375 [4], 64.4%; in the data set with NCI-H522 [5] it was 0.2%; in the data set on MCF7 [6] it was 31.3%. The IC50 (commonly the concentration that gives 50% inhibition) was 3.21 µM in the data set on HepG2 [7]; 7.96 µM with MDA-MB-453 [8]; 2.93 µM with A-375 [9]; 0.531 µM in data set [10]; 23.4 µM in [11]. Also, in the data set on A-375 [12], the inhibition in vivo at 50 mg/kg was determined as 42.5%. Further, the Activity result with Mus musculus [13] and in the data set on Mus musculus [14] was “Non-toxic” each time.
Turning to `COc1cccc(C(=O)Nc2ccc(C)c(C(=O)Nc3ccc(-c4ncc[nH]4)nc3)c2)c1`, the inhibition of growth at 10 µM with HepG2 [1] is -4.9%; with MDA-MB-453 [2], 18%; in the data set with SW480 [3] it was 17.6%; in the data set with A-375 [4], 28.2%; in the data set with NCI-H522 [5], 8.7%; in the data set with MCF7 [6] it was 27.9%. In data set [10], this compound gave an IC50 of 2.47 µM.
As to `O=C(Nc1ccc(Cl)c(C(=O)Nc2ccc(-c3ncc[nH]3)nc2)c1)c1ccc(Cl)c(Cl)c1`, the inhibition of growth at 10 µM in the data set with HepG2 [1] is 57%; in the data set on MDA-MB-453 [2], 45.3%; with SW480 [3] it was 47.2%; in the data set on A-375 [4], 46.1%; in the data set with NCI-H522 [5], -21.1%; in the data set with MCF7 [6], 35.5%. The IC50 in the data set on HepG2 [7] is 15.2 µM; with MDA-MB-453 [8], 11.4 µM; with SW480 [15] it was 9.34 µM; in the data set with A-375 [9], 9.39 µM.
For `O=C(Nc1ccc(Cl)c(C(=O)Nc2ccc(-c3ncc[nH]3)nc2)c1)c1ccc(Cl)c(C(F)(F)F)c1`, the inhibition of growth at 10 µM in the data set on HepG2 [1] is 54.2%; with MDA-MB-453 [2], 49.3%; in the data set with SW480 [3], 38.8%; with A-375 [4], 62.6%; in the data set with NCI-H522 [5], -3.2%; with MCF7 [6], 41.5%. The IC50 in the data set on HepG2 [7] was 13.8 µM; in the data set with MDA-MB-453 [8], 8.35 µM; in the data set with A-375 [9], 4.26 µM; in the data set on MCF7 [16] it was 15.3 µM; in data set [10], 0.65 µM; in data set [11], 18.6 µM. Further, the inhibition in vivo at 50 mg/kg in the data set on A-375 [12] worked out at 35.7%. Besides, the Activity result with Mus musculus [13] and in the data set on Mus musculus [14] was “Non-toxic” throughout.
In the case of `Cc1cc(C(=O)Nc2ccc(Cl)c(C(=O)Nc3ccc(-c4ncc[nH]4)nc3)c2)ccc1Cl`, the inhibition of growth at 10 µM in the data set with HepG2 [1] amounted to 52.8%; with MDA-MB-453 [2], 51.1%; with SW480 [3], 65.7%; in the data set on A-375 [4] it was 43.9%; in the data set with NCI-H522 [5], 66.7%; in the data set on MCF7 [6] it was 43.7%. The IC50 with HepG2 [7] is 11.5 µM; with MDA-MB-453 [8], 8.76 µM; in the data set on SW480 [15], 3.57 µM; in the data set with A-375 [9] it was 12.6 µM; with NCI-H522 [17], 2.09 µM; with MCF7 [16], 16.3 µM.
Regarding `COc1ccc(C(=O)Nc2ccc(C)c(C(=O)Nc3ccc(-c4ncc[nH]4)nc3)c2)cc1`, the inhibition of growth at 10 µM in the data set with HepG2 [1] turned out to be 18.7%; with MDA-MB-453 [2], 23.5%; in the data set with SW480 [3], 26.5%; in the data set with A-375 [4], 18.7%; in the data set on NCI-H522 [5], 27.1%; in the data set with MCF7 [6], 36%. In data set [10], this compound yielded an IC50 of 40.4 µM.
Turning to `CNC(=O)c1cc(Oc2ccc(NC(=O)Nc3ccc(Cl)c(C(F)(F)F)c3)cc2)ccn1` [SORAFENIB], the inhibition of growth at 10 µM with HepG2 [1] turned out to be 59.9%; in the data set on MDA-MB-453 [2] it was 36.9%; with SW480 [3] it was 28.1%; in the data set with A-375 [4] it was 44.1%; in the data set on NCI-H522 [5], 39.4%; in the data set with MCF7 [6], 23%. The IC50 in the data set with HepG2 [7] came to 5.74 µM; in the data set on A-375 [9], 16.2 µM; with NCI-H522 [17], 19.3 µM. In addition, in the data set with A-375 [12], the inhibition in vivo at 50 mg/kg was 76.6%.
